# Data reported in US10617664B2, “Brain derived PPARα ligands” (Rush University Medical Center, priority 2015, dated 2020).
# Changes are numbered by the printed parent chain.
# Key:
# Y464D-PPARα = molecular target: T1, Y464D-PPARα (Mus musculus, UniProt P23204, Y464D); test: Thermal shift assay, Y464D-PPARα with ligands; type: binding
# T1 construct: the entire mouse GFP-Ppara gene (GFP-FLPpara) and three different mutated genes were cloned; GFP; made in house; host or cells: not clearly stated (lentivirus packaged in HEK293FT cells)
# T1 sequence (P23204 1-468 Y464D): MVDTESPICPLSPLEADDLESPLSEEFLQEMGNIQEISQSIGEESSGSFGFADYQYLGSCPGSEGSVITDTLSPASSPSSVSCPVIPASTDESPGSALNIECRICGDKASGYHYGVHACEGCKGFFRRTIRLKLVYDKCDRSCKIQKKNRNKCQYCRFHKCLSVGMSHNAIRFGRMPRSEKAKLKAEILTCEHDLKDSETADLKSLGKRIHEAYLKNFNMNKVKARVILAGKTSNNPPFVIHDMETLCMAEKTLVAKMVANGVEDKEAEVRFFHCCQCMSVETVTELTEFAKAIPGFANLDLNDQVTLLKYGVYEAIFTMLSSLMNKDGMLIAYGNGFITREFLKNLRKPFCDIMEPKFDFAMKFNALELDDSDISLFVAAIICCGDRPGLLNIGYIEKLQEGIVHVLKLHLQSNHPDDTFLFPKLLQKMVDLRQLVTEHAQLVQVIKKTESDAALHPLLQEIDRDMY
# Procedure: (§1) Lentivirus-mediated de novo expression studies were performed, where wild type full-length (GFP-FLPpara) was overexpressed and three different LBD-mutated PPARα (GFP-Y314D, GFP-Y464D and GFP-Y314D/Y464D Ppara) recombinant proteins (FIG. 9D) were expressed in neurons followed by binding analyses with three endogenous ligands. Briefly, site directed mutagenesis was performed in the mouse PPARα with Y314 and Y464 residues replaced separately or together with aspartate (D). After that, the entire mouse GFP-Ppara gene (GFP-FLPpara) and three different mutated genes were cloned in the pLenti6/V5-TOPO lentiviral expression vector (FIG. 3D), packaged in lentivirus particle with HEK293FT cells, purified full length and mutated PPARα proteins in a GFP-affinity column, and finally thermal shift assays were performed in order to analyze their conformational stability. […] After 48 h of transduction, the cells were homogenized, passed through GFP-affinity column, eluted, fractionated with chloroform-methanol, and finally analyzed by GC-MS for the detection of ligands. […] On the other hand, mutation of the Y464 completely knocked down the ligand binding affinity as we observed profound loss of ligand binding in both lenti-GFP-Y464D-Ppara (FIG. 3K, FIG. 9K) and lenti-GFP-Y314D/Y464D-Ppara (FIG. 3L, FIG. 9L)-transduced Ppara-null neurons. Throughout these analyses, we used 2,4-bis (α, α-dimethyl benzyl) phenol as an internal standard (Supplementary FIG. 5A-F). We normalized peak area of different ligands with that of internal standard and then quantified the binding affinity of these ligands with different construct of PPARα by peak integration statistics (Table 1).
# (§2) Thermal shift assays were performed in Applied Biosystems 7500 standard real-time thermal cycler machine with commercially available thermal shift dye kit (Life technologies; Cat #4461146). For each reaction, purified protein (0.5 μg to 1 μg) was added to 18 μL of thermal shift buffer provided with the kit, and 1-2 μL of dye. […]
# astrocytes = test: MTT cell viability in PPRE-luciferase transfected astrocytes; type: cell-based, mouse; settings: higher concentrations
# Procedure: Astrocytes plated at 60-70% confluence were transfected with tk-PPREx3-Luc, a PPRE-dependent luciferase reporter construct. After 24 h of transfection, cells were treated with different concentrations of HEX (FIG. 10A), OCT (FIG. 10B) and HMB (FIG. 10C) for 4 h followed by monitoring luciferase activity. Under similar experimental condition, MTT was performed to understand the effect of these ligands on cell viability (FIG. 10D, HEX; FIG. 10E, OCT; FIG. 10F, HMB). Results are mean±SD of three independent experiments. ^ap<0.001 vs. control. Ppara-null astrocytes were transduced with lentivirions containing empty vector (FIG. 10G), FL-Ppara (FIG. 10H), Y314D-Ppara (FIG. 10I), Y464D-Ppara (FIG. 10J), and Y314D/Y464D-Ppara (FIG. 10K) for 48 h followed by transfection with tk-PPREx3-Luc. After 24 h of transfection, cells were treated with different doses of HEX, OCT and HMB for 4 h followed by monitoring luciferase activity. PPRE luciferase activity was assayed in Ppara-null astrocytes transduced with lentivirions containing empty vector (FIG. 10L), FL-Ppara (FIG. 10M), Y314D-Ppara (FIG. 10N), Y464D-Ppara (FIG. 10O), and Y314D/Y464D-Ppara (FIG. 10P) after treatment with different doses of WY14643, fenofibrate, and clofibrate. PPRE luciferase activity was assayed in primary hippocampal neurons transduced with lentivirions containing empty vector (FIG. 10Q), FL-Ppara (FIG. 10R), Y314D-Ppara (FIG. 10S), Y464D-Ppara (FIG. 10T), and Y314D/Y464D-Ppara (FIG. 10U) after treatment with different doses of HEX, OCT and HMB. Results are mean±SD of three independent experiments. ^ap<0.001 vs. control.
# PPARα = molecular target: T2, PPARα (Mus musculus, UniProt P23204); test: Thermal shift assay, full length PPARα with ligands; type: binding; settings: full length protein with ligand; protein only x=45.96321
# T2 construct: GFP; made in house; host or cells: not clearly stated (lentivirus packaged in HEK293FT cells)
# T2 sequence (P23204 1-468): T1 sequence (P23204 1-468 Y464D) with D464Y
# Procedure: as §1, §2
SMILES,effect on Tm of Y464D-PPARα (Y464D-PPARα),cytotoxicity (MTT) (astrocytes),x at y=50 of thermal shift curve (melting temperature) (PPARα)
CCOC(=O)C(C)(C)C(C)O (stereo not drawn) [HMB],did not alter the Tm,significant level of cytotoxicity,58.49
"CCCCCCCCCCCCCCCC(N)=O [HEX, hexadecanamide]",did not alter the Tm,significant level of cytotoxicity,59.2835
"CCCCCCCCC=CCCCCCCCC(N)=O [OCT, 9-octadecenamide]",did not alter the Tm,significant level of cytotoxicity,59.6128
